Reference: patent publication US11084829B2, “Ubiquitin-specific-processing protease 7 (USP7) modulators and uses thereof” (RAPT THERAPEUTICS, INC., priority 2018, dated 2021)

Molecular target: USP7 (Homo sapiens, UniProt Q93009)
Experiment: USP7 inhibitory potency (IC50)
Format: biochemical
Procedure: Activity for compounds described herein is provided in Table 2, wherein potency levels are provided as follows: (Potency: USP7 IC50: A<0.01 μM; B=0.01-0.1 μM; C=>0.1 μM.

Sequence of USP7 (Q93009 whole entry): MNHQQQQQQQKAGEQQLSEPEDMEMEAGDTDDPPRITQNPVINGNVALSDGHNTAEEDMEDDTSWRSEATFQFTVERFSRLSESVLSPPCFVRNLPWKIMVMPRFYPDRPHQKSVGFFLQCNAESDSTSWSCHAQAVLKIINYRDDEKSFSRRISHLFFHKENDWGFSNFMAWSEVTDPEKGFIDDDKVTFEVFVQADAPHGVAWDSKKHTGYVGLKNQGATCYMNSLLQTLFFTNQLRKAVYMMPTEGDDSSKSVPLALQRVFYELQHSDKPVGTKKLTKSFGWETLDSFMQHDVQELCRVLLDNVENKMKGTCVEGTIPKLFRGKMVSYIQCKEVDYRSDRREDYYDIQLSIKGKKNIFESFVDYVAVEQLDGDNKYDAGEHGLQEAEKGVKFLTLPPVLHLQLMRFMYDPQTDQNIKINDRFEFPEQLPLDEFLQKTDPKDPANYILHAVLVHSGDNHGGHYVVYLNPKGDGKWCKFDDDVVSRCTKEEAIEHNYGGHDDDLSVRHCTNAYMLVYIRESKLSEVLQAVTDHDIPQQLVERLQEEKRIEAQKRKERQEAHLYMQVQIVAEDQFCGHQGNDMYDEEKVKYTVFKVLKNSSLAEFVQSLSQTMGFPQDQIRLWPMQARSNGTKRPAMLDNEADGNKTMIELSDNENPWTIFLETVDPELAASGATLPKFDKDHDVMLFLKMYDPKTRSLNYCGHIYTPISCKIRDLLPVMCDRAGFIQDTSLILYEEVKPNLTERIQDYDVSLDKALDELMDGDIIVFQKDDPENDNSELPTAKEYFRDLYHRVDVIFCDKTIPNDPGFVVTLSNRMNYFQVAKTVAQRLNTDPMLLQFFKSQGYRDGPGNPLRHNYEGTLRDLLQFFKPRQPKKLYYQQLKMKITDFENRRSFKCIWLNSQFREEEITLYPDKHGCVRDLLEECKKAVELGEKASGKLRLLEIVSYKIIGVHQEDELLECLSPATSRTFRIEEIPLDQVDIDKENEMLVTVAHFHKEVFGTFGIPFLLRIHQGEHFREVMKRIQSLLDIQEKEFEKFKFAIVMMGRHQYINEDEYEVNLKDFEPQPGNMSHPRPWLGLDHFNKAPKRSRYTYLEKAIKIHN

IC50 [nM]	Structure (SMILES)
< 10	Cc1cc(Cl)cc(-c2ncnc3cc(CN4C(=O)CCN(CC(F)(F)F)C4=O)sc23)c1C[C@@H]1CNCC(C)(C)O1 [Example 236, (R)-3-((4-(5-chloro-2-((6,6-dimethylmorpholin-2-yl)methyl)-3-methylphenyl)thieno[3,2-d]pyrimidin-6-yl)methyl)-1-(2,2,2-trifluoroethyl)dihydropyrimidine-2,4(1H,3H)-dione]
< 10	Cc1cc(Cl)cc(-c2ncnc3cc(Cn4c(=O)ccn(C5CCC5)c4=O)sc23)c1CC1CNCCO1 (stereo not drawn) [Example 166, 3-((4-(5-chloro-3-methyl-2-(morpholin-2-ylmethyl)phenyl)thieno[3,2-d]pyrimidin-6-yl)methyl)-1-cyclobutylpyrimidine-2,4(1H,3H)-dione]
< 10	Cc1cc(Cl)cc(-c2ncnc3cc(CN4C(=O)CCN(CC(F)F)C4=O)sc23)c1C[C@@H]1CNCC(C)(C)O1 [Example 240, (R)-3-((4-(5-chloro-2-((6,6-dimethylmorpholin-2-yl)methyl)-3-methylphenyl)thieno[3,2-d]pyrimidin-6-yl)methyl)-1-(2,2-difluoroethyl)dihydropyrimidine-2,4(1H,3H)-dione]
< 10	Cc1cc(Cl)cc(-c2ccnc3cc(CN4C(=O)C5C(C4=O)C5(C)C)sc23)c1CN1CCN(C)C[C@@H]1C (stereo partly drawn) [Example 23, 3-((7-(5-chloro-2-(((S)-2,4-dimethylpiperazin-1-yl)methyl)-3-methylphenyl)thieno[3,2-b]pyridin-2-yl)methyl)-6,6-dimethyl-3-azabicyclo[3.1.0]hexane-2,4-dione]
< 10	Cc1cc(Cl)cc(-c2ncnc3cc(Cn4c(=O)ccn(CC(F)(F)F)c4=O)sc23)c1CC1CNCCO1 (stereo not drawn) [Example 167, 3-((4-(5-chloro-3-methyl-2-(morpholin-2-ylmethyl)phenyl)thieno[3,2-d]pyrimidin-6-yl)methyl)-1-(2,2,2-trifluoroethyl)pyrimidine-2,4(1H,3H)-dione]
< 10	CCN1CCN(Cc2c(C)cc(Cl)cc2-c2ccnc3cc(CN4C(=O)CCC4=O)sc23)[C@@H](C)C1 [Example 11, (S)-1-((7-(5-chloro-2-((4-ethyl-2-methylpiperazin-1-yl)methyl)-3-methylphenyl)thieno[3,2-b]pyridin-2-yl)methyl)pyrrolidine-2,5-dione]
10 to 100	Cc1cc(Cl)cc(-c2ccnc3cc(CN4C(=O)C5CC5C4=O)sc23)c1CC1CNCCS1(=O)=O (stereo not drawn) [Example 100, 3-((7-(5-chloro-2-((1,1-dioxidothiomorpholin-2-yl)methyl)-3-methylphenyl)thieno[3,2-b]pyridin-2-yl)methyl)-3-azabicyclo[3.1.0]hexane-2,4-dione]
> 100	Cc1cc(Cl)cc(-c2ncnc3cc(Cn4c(C#N)cccc4=O)sc23)c1C[C@@H]1CNCC(C)(C)O1 [Example 262, (R)-1-((4-(5-chloro-2-((6,6-dimethylmorpholin-2-yl)methyl)-3-methylphenyl)thieno[3,2-d]pyrimidin-6-yl)methyl)-6-oxo-1,6-dihydropyridine-2-carbonitrile]
< 10	Cc1cc(Cl)cc(-c2ncnc3cc(CN4C(=O)C5CC5C4=O)sc23)c1CN1C[C@@H](C)NC[C@@H]1C (stereo partly drawn) [Example 65, 3-((4-(5-chloro-2-(((2S,5R)-2,5-dimethylpiperazin-1-yl)methyl)-3-methylphenyl)thieno[3,2-d]pyrimidin-6-yl)methyl)-3-azabicyclo[3.1.0]hexane-2,4-dione]
< 10	Cc1cc(Cl)cc(-c2ncnc3cc(CN4C(=O)CN(C)C4=O)sc23)c1C[C@@H]1CNCC(C)(C)O1 [Example 275, (R)-3-((4-(5-chloro-2-((6,6-dimethylmorpholin-2-yl)methyl)-3-methylphenyl)thieno[3,2-d]pyrimidin-6-yl)methyl)-1-methylimidazolidine-2,4-dione]
< 10	CC1(C)C2C(=O)N(Cc3cc4nccc(-c5cc(Cl)cc(Cl)c5CC5CNCCO5)c4s3)C(=O)C21 (stereo not drawn) [Example 140, 3-((7-(3,5-dichloro-2-(morpholin-2-ylmethyl)phenyl)thieno[3,2-b]pyridin-2-yl)methyl)-6,6-dimethyl-3-azabicyclo[3.1.0]hexane-2,4-dione]
< 10	Cc1cc(Cl)cc(-c2ncnc3cc(CN4C(=O)CCN(CC(F)F)C4=O)sc23)c1CN1[C@@H](C)CNC[C@@H]1C [Example 259, 3-((4-(5-chloro-2-(((2S,6S)-2,6-dimethylpiperazin-1-yl)methyl)-3-methylphenyl)thieno[3,2-d]pyrimidin-6-yl)methyl)-1-(2,2-difluoroethyl)dihydropyrimidine-2,4(1H,3H)-dione]
> 100	Cc1cc(Cl)cc(-c2ccnc3cc(CN4C(=O)C5CC5C4=O)sc23)c1CC1COCCN1 (stereo not drawn) [Example 115, 3-((7-(5-chloro-3-methyl-2-(morpholin-3-ylmethyl)phenyl)thieno[3,2-b]pyridin-2-yl)methyl)-3-azabicyclo[3.1.0]hexane-2,4-dione]
< 10	Cc1cc(Cl)cc(-c2ncnc3cc(CN4C(=O)C5CC5C4=O)sc23)c1C[C@@H]1CN(C(=O)C(F)(F)F)CCO1 (stereo partly drawn) [Example 199, 3-((4-(5-chloro-3-methyl-2-(((R)-4-(2,2,2-trifluoroacetyl)morpholin-2-yl)methyl)phenyl)thieno[3,2-d]pyrimidin-6-yl)methyl)-3-azabicyclo[3.1.0]hexane-2,4-dione]
< 10	CC1(C)CNCC(Cc2c(Cl)cc(Cl)cc2-c2ncnc3cc(CN4C(=O)C5CC5C4=O)sc23)O1 (stereo not drawn) [Example 227, 3-((4-(3,5-dichloro-2-((6,6-dimethylmorpholin-2-yl)methyl)phenyl)thieno[3,2-d]pyrimidin-6-yl)methyl)-3-azabicyclo[3.1.0]hexane-2,4-dione]
< 10	Cc1cc(Cl)cc(-c2ccnc3cc(CN4C(=O)CCC4=O)sc23)c1CN1CC2CCC1CN2 (stereo not drawn) [Example 9, 1-((7-(2-((2,5-diazabicyclo[2.2.2]octan-2-yl)methyl)-5-chloro-3-methylphenyl)thieno[3,2-b]pyridin-2-yl)methyl)pyrrolidine-2,5-dione]
< 10	CCN1CC(=O)N(Cc2cc3ncnc(-c4cc(Cl)cc(C)c4CN4C[C@@H](C)NC[C@@H]4C)c3s2)C1=O [Example 83, 3-((4-(5-chloro-2-(((2S,5R)-2,5-dimethylpiperazin-1-yl)methyl)-3-methylphenyl)thieno[3,2-d]pyrimidin-6-yl)methyl)-1-ethylimidazolidine-2,4-dione]
10 to 100	Cc1cc(Cl)cc(-c2ncnc3cc(CN4C(=O)CCN(CCCC(=O)O)C4=O)sc23)c1C[C@@H]1CNCCO1 [Example 265, (R)-4-(3-((4-(5-chloro-3-methyl-2-(morpholin-2-ylmethyl)phenyl)thieno[3,2-d]pyrimidin-6-yl)methyl)-2,4-dioxotetrahydropyrimidin-1(2H)-yl)butanoic acid]
< 10	Cc1cc(Cl)cc(-c2ncnc3cc(CN4C(=O)C5CCCN5C4=O)sc23)c1CN1[C@@H](C)CNC[C@@H]1C (stereo partly drawn) [Example 86, 2-((4-(5-chloro-2-(((2S,6S)-2,6-dimethylpiperazin-1-yl)methyl)-3-methylphenyl)thieno[3,2-d]pyrimidin-6-yl)methyl)tetrahydro-1H-pyrrolo[1,2-c]imidazole-1,3(2H)-dione]
< 10	Cc1cc(Cl)cc(-c2ccnc3cc(CN4C(=O)CCCC4=O)sc23)c1CN1C[C@@H](C)NC[C@@H]1C [Example 45, 1-((7-(5-chloro-2-(((2S,5R)-2,5-dimethylpiperazin-1-yl)methyl)-3-methylphenyl)thieno[3,2-b]pyridin-2-yl)methyl)piperidine-2,6-dione]
< 10	Cn1ccc(=O)n(Cc2cc3ncnc(-c4cc(Cl)cc(Cl)c4CC4CNCC(C)(C)O4)c3s2)c1=O (stereo not drawn) [Example 252, 3-((4-(3,5-dichloro-2-((6,6-dimethylmorpholin-2-yl)methyl)phenyl)thieno[3,2-d]pyrimidin-6-yl)methyl)-1-methylpyrimidine-2,4(1H,3H)-dione]
< 10	Cc1cc(Cl)cc(-c2ccnc3cc(CN4C(=O)C5CC5C4=O)sc23)c1CC1CNCC2(CC2)O1 (stereo not drawn) [Example 132, 3-((7-(2-((4-oxa-7-azaspiro[2.5]octan-5-yl)methyl)-5-chloro-3-methylphenyl)thieno[3,2-b]pyridin-2-yl)methyl)-3-azabicyclo[3.1.0]hexane-2,4-dione]
< 10	Cc1cc(Cl)cc(-c2ccnc3cc(CN4C(=O)C5CC5C4=O)sc23)c1C[C@@H]1CNC[C@@H](C)O1 (stereo partly drawn) [Example 99, 3-((7-(5-chloro-3-methyl-2-(((2R,6R)-6-methylmorpholin-2-yl)methyl)phenyl)thieno[3,2-b]pyridin-2-yl)methyl)-3-azabicyclo[3.1.0]hexane-2,4-dione]
< 10	Cc1cc(Cl)cc(-c2ccnc3cc(CN4C(=O)CCC4=O)sc23)c1CN1CCCNCC1 [Example 17, 1-((7-(2-((1,4-diazepan-1-yl)methyl)-5-chloro-3-methylphenyl)thieno[3,2-b]pyridin-2-yl)methyl)pyrrolidine-2,5-dione]
< 10	Cc1cc(Cl)cc(-c2ncnc3cc(CN4C(=O)C5CC5C4=O)sc23)c1C[C@@H]1CNCC(C)(C)O1 (stereo partly drawn) [Example 216, 3-((4-(5-chloro-2-(((R)-6,6-dimethylmorpholin-2-yl)methyl)-3-methylphenyl)thieno[3,2-d]pyrimidin-6-yl)methyl)-3-azabicyclo[3.1.0]hexane-2,4-dione]
< 10	C[C@@H]1CN(Cc2c(Cl)cc(Cl)cc2-c2ccnc3cc(CN4C(=O)C5CC5C4=O)sc23)[C@@H](C)CN1 (stereo partly drawn) [Example 43, 3-((7-(3,5-dichloro-2-(((2S,5R)-2,5-dimethylpiperazin-1-yl)methyl)phenyl)thieno[3,2-b]pyridin-2-yl)methyl)-3-azabicyclo[3.1.0]hexane-2,4-dione]
< 10	CN1CC(=O)N(Cc2cc3ncnc(-c4cc(Cl)cc(Cl)c4CC4CNCC(C)(C)O4)c3s2)C1=O (stereo not drawn) [Example 253, 3-((4-(3,5-dichloro-2-((6,6-dimethylmorpholin-2-yl)methyl)phenyl)thieno[3,2-d]pyrimidin-6-yl)methyl)-1-methylimidazolidine-2,4-dione]
